Several values for one entry are separate records, joined by “and”; a condition that tells them apart may be missing. Equal entries are not always repeated.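 Following 48 hours of exposure in 96-well plates, responses at five concentrations were used to interpolate endpoints linearly. GI50 is the concentration that inhibits growth by half. The concentration for full growth arrest is given as TGI.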
Experiments:
Assay in all cases: NCI anticancer screen, dose series, 48 h
NCI-H226 lung = tested on: NCI-H226 lung
CAKI-1 renal = tested on: CAKI-1 renal
NCI-H23 lung = tested on: NCI-H23 lung
SNB-75 CNS = tested on: SNB-75 CNS
SR leukemia = tested on: SR leukemia
SK-MEL-2 melanoma = tested on: SK-MEL-2 melanoma
MALME-3M melanoma = tested on: MALME-3M melanoma
K-562 leukemia = tested on: K-562 leukemia
HCC-2998 colon = tested on: HCC-2998 colon
M14 melanoma = tested on: M14 melanoma

Structure (SMILES)	GI50 (NCI-H226 lung)	TGI (NCI-H226 lung)	GI50 (CAKI-1 renal)	TGI (CAKI-1 renal)	GI50 (NCI-H23 lung)	TGI (NCI-H23 lung)	GI50 (SNB-75 CNS)	TGI (SNB-75 CNS)	GI50 (SR leukemia)	TGI (SR leukemia)	GI50 (SK-MEL-2 melanoma) [µM]	TGI (SK-MEL-2 melanoma)	GI50 (MALME-3M melanoma)	TGI (MALME-3M melanoma)	GI50 (K-562 leukemia)	TGI (K-562 leukemia)	GI50 (HCC-2998 colon)	TGI (HCC-2998 colon)	GI50 (M14 melanoma)	TGI (M14 melanoma)
O=C(Nc1ccccc1OC(F)(F)F)Nc1n[nH]c2ccccc12	26.1 µM	> 100 µM	31 µM	> 100 µM	50 µM	> 100 µM	17.5 µM	49.8 µM	0.0489 µM	24 µM	81.4	> 100 µM	76.8 µM	> 100 µM	47.2 µM	> 100 µM	55.9 µM	> 100 µM	25.5 µM	> 100 µM
O=S(=O)(NC1=NCCN1C(=S)SN1CCn2c1nsc2=S)c1ccc(OC(F)(F)F)cc1	18 µM	38.7 µM	17.5 µM	74.5 µM	12.7 µM	39 µM	14.7 µM	34.4 µM	1.74 µM	5.76 µM	6.58	21 µM	5.25 µM	32.7 µM	4.02 µM	19.8 µM	12.7 µM	26.1 µM	25.9 µM	> 100 µM
COC1=CC(=O)c2nc(-c3ccncc3)[nH]c2C1=O	> 100 µM	> 100 µM	86.6 µM	> 100 µM	> 100 µM	> 100 µM	88.3 µM	> 100 µM	> 100 µM	> 100 µM	> 100	> 100 µM	> 100 µM	> 100 µM	> 100 µM	> 100 µM	> 100 µM	> 100 µM	> 100 µM	> 100 µM
CC(C)CCC[C@@H](C)[C@H]1CC[C@H]2[C@@H]3CC=C4C[C@@H](C(C(=O)O)C(=O)O)CC[C@]4(C)[C@H]3CC[C@]12C	0.209 µM	0.622 µM	0.076 µM	0.199 µM	0.147 µM	0.63 µM	0.166 µM	1.47 µM	0.135 µM	1.63 µM	0.224	0.613 µM	0.134 µM	0.502 µM	0.144 µM	2 µM	0.185 µM	1.28 µM	0.186 µM	1.76 µM
COC(=O)[C@@H]1[C@H](O)[C@H](C)[C@H](O)[C@@](C)(O)/C=C\C=C(C)C(=O)Nc2c(C)c(OC(C)=O)c3c(c2O)C(=O)C(C)=C2OCOC(=C23)C(C)=C[C@@](C)(O)[C@H](O)[C@@H](C)[C@H]1OC(C)=O	–	> 100 µM	> 66.9 µM	> 100 µM	–	> 100 µM and 66.9 µM and 47.8 µM	–	> 100 µM	58 µM and 24.3 µM and 28.4 µM	> 100 µM and 63.8 µM and 89 µM	–	> 100 µM and 66.9 µM and 96.3 µM	–	> 100 µM and 66.9 µM and 88.6 µM	32.4 µM	> 100 µM and 66.9 µM	11.1 µM	> 100 µM and 66.9 µM	> 100 µM and 21 µM and 29.1 µM	> 100 µM and 66.9 µM and 86.5 µM
COc1ccc2c(C3=C(c4cn(C)c5ccccc45)C(=O)NC3=O)cn(C)c2c1	2.63 µM	> 25 µM	0.0941 µM	> 25 µM	0.143 µM	> 25 µM	0.0567 µM	> 25 µM	0.0717 µM	> 25 µM	0.597	> 9.97 µM	> 25 µM	> 25 µM	0.101 µM	> 25 µM	0.41 µM	> 25 µM	0.0999 µM	> 25 µM
C#Cc1ccc(-n2c(/C=C/c3ccc(C(F)(F)F)cc3)nc3ncccc3c2=O)cc1	1.99 µM	4.09 µM	2.26 µM	6.22 µM	3.9 µM	19 µM	1.81 µM	7.22 µM	2 µM	8.08 µM	2.03	4.09 µM	1.64 µM	3.57 µM	2.96 µM	8.71 µM	1.96 µM	3.47 µM	2.07 µM	4.27 µM
O=C(/C=C/C12c3ccccc3C(c3ccccc31)C1C(=O)NC(=O)C12)c1ccncc1 (stereo not given)	2.44 µM	6.98 µM	2.58 µM	11.7 µM	2.09 µM	4.45 µM	2.19 µM	10.9 µM	1.76 µM	7.34 µM	2.88	7.72 µM	3.16 µM	12.2 µM	1.88 µM	> 100 µM	1.87 µM	3.68 µM	2.44 µM	7.65 µM
c1ccc2cc(-c3cc(-c4cc(-c5ccc6ccccc6c5)on4)no3)ccc2c1	–	> 100 µM	–	> 100 µM	–	> 100 µM	–	> 100 µM	–	> 100 µM	–	> 100 µM	–	> 100 µM	–	> 100 µM	–	> 100 µM	–	> 100 µM
O=C(Nc1ccc(Cl)c(Cl)c1)Nc1ccc(Cl)c(Cl)c1	3.05 µM and 3.22 µM	15.2 µM and 15.8 µM	2.6 µM and 1.94 µM	9.96 µM and 4.59 µM	2.63 µM and 2.4 µM	10.2 µM and 11.4 µM	2.15 µM and 2.85 µM	7.81 µM and 18.8 µM	2.7 µM and 2.26 µM	10.9 µM and 6.66 µM	2.15	5.49 µM and 4.09 µM	2.22 µM and 2.44 µM	5.95 µM and 6.58 µM	3.39 µM and 1.97 µM	19.8 µM and 9.9 µM	3.71 µM and 3.01 µM	13.4 µM and 11.5 µM	3.1 µM	9.59 µM

Reference: PubChem BioAssay (NCI)
